Assay results published in ChEMBL document CHEMBL1156134, “2-Amino-5-aryl-pyridines as selective CB2 agonists: synthesis and investigation of structure-activity relationships” (Bioorg Med Chem Lett, 2009).

Tests used:
[1] = molecular target: T1, Cannabinoid receptor 2 (Homo sapiens, UniProt P34972); test: Agonist activity at human CB2 receptor expressed in yeast cells; assay type: functional, cell-based
[2] = molecular target: T1, Cannabinoid receptor 2; test: Agonist activity at human CB2 receptor expressed in yeast cells relative to HU210; assay type: functional, cell-based
[3] = molecular target: T2, Cannabinoid receptor 1 (Homo sapiens, UniProt P21554); test: Agonist activity at human CB1 receptor expressed in yeast cells; assay type: functional, cell-based
[4] = tested on: Liver microsomes; test: Clearance in rat liver microsomes; assay type: ADME, Microsome
[5] = molecular target: T2, Cannabinoid receptor 1; test: Agonist activity at human CB1 receptor expressed in yeast cells relative to HU210; assay type: functional, cell-based

T1 sequence (P34972 whole entry): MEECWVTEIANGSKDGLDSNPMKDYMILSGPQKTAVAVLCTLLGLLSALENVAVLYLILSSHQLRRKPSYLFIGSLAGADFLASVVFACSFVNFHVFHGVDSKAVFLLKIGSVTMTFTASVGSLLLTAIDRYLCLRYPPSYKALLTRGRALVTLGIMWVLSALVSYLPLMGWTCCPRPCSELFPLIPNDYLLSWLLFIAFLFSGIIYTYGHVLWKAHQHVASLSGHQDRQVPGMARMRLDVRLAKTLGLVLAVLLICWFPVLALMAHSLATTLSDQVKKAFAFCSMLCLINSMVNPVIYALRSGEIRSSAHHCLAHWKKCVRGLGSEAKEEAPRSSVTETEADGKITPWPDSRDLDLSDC
T2 sequence (P21554 whole entry): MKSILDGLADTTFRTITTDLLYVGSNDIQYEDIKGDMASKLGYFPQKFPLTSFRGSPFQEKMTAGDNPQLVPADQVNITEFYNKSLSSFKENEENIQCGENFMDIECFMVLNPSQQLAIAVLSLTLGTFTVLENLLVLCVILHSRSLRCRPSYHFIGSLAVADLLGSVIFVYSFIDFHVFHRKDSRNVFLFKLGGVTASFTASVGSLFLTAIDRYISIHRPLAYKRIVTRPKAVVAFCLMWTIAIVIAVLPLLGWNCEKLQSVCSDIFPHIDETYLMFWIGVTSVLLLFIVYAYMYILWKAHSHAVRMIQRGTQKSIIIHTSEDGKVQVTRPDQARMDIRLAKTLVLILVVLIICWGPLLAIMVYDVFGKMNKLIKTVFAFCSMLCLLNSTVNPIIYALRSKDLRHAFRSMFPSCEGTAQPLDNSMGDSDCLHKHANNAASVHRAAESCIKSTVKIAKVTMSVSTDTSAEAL

FC(F)(F)c1cc(-c2cccc(Cl)c2Cl)cnc1N1CCCCCC1
EC50 [1]: 6.31 µM
Efficacy [2]: 12%
EC50 [3]: > 31.6 µM

Clc1cccc(-c2ccc(N3CCCCCC3)nc2)c1Cl
EC50 [1]: 0.0398 µM
Efficacy [2]: 104%
CL [4]: 30 mL/min/g
EC50 [3]: 10 µM
Efficacy [5]: 4%

CCCCNc1ccc(-c2cccc(Cl)c2Cl)cn1
EC50 [1]: 0.0794 µM
Efficacy [2]: 88%

C[C@@H]1CC[C@H](C)N1c1ccc(-c2cccc(Cl)c2Cl)cn1
EC50 [1]: 0.251 µM
Efficacy [2]: 37%
CL [4]: 11 mL/min/g

Clc1cccc(-c2ccc(N3CCOCC3)nc2)c1
EC50 [1]: 1 µM
Efficacy [2]: 20%

Cc1c(Cl)cccc1-c1ccc(N2CCOCC2)nc1
EC50 [1]: 0.501 µM
Efficacy [2]: 73%

Clc1ccc(Cl)c(-c2ccc(N3CCOCC3)nc2)c1
EC50 [1]: 0.631 µM
Efficacy [2]: 25%

c1ccc(-c2ccc(N3CCCCCC3)nc2)nc1
EC50 [1]: 10 µM
Efficacy [2]: 29%

CC1CC(C)CN(c2ccc(-c3cccc(Cl)c3Cl)cn2)C1 (stereo not given)
EC50 [1]: 0.501 µM
Efficacy [2]: 73%

c1cc2occc2c(-c2ccc(N3CCCCCC3)nc2)n1
EC50 [1]: 0.0631 µM
Efficacy [2]: 80%
CL [4]: > 50 mL/min/g

Cc1cnc(-c2ccc(N3CCCCCC3)nc2)c(C)c1
EC50 [1]: 1.26 µM
Efficacy [2]: 102%

O=C1CCC(=O)N1c1ccc(-c2cccc(Cl)c2Cl)cn1
EC50 [1]: 3.98 µM
Efficacy [2]: 19%

Clc1cccc(-c2ccc(N3CCSCC3)nc2)c1Cl
EC50 [1]: 0.158 µM
Efficacy [2]: 93%

CN(C)C(=O)c1cc(-c2cccc(Cl)c2Cl)cnc1N1CCCCCC1
EC50 [1]: 0.794 µM
Efficacy [2]: 37%
EC50 [3]: > 31.6 µM

Cc1cccnc1-c1ccc(N2CCCCCC2)nc1
EC50 [1]: 0.794 µM
Efficacy [2]: 86%

Clc1ccc(-c2ccc(N3CCOCC3)nc2)c(Cl)c1
EC50 [1]: > 31.6 µM

Clc1cccnc1-c1ccc(N2CCCCCC2)nc1
EC50 [1]: 0.501 µM
Efficacy [2]: 103%

Clc1ccc(-c2ccc(N3CCCCCC3)nc2)nc1
EC50 [1]: 0.1 µM
Efficacy [2]: 101%
CL [4]: 13 mL/min/g

N#Cc1cc(-c2cccc(Cl)c2Cl)cnc1N1CCCCCC1
EC50 [1]: 3.98 µM
Efficacy [2]: 41%
EC50 [3]: > 31.6 µM

O=C(c1cc(-c2cccc(Cl)c2Cl)cnc1N1CCCCCC1)N1CCOCC1
EC50 [1]: 0.0794 µM
Efficacy [2]: 67%
CL [4]: > 50 mL/min/g
EC50 [3]: 10 µM
Efficacy [5]: 0.19%

N#Cc1cc(N2CCCCCC2)ncc1-c1cccc(Cl)c1Cl
EC50 [1]: 0.1 µM
Efficacy [2]: 86%
CL [4]: > 50 mL/min/g
EC50 [3]: 10 µM
Efficacy [5]: 13%

FC(F)(F)c1cc(N2CCCCCC2)ncc1-c1cccc(Cl)c1Cl
EC50 [1]: 2.51 µM
Efficacy [2]: 79%
EC50 [3]: > 31.6 µM

Clc1ccccc1-c1ccc(N2CCOCC2)nc1
EC50 [1]: 0.398 µM
Efficacy [2]: 43%

Clc1ccc(-c2ccc(N3CCOCC3)nc2)cc1Cl
EC50 [1]: 3.98 µM
Efficacy [2]: 11%

Clc1cccc(-c2ccc(N3CCCOCC3)nc2)c1Cl
EC50 [1]: 0.0631 µM
Efficacy [2]: 87%
CL [4]: 27 mL/min/g

N#Cc1cccnc1-c1ccc(N2CCCCCC2)nc1
EC50 [1]: 0.398 µM
Efficacy [2]: 75%

O=C1CCCN1c1ccc(-c2cccc(Cl)c2Cl)cn1
EC50 [1]: 0.251 µM
Efficacy [2]: 59%

Clc1cccc(-c2ccc(N3CCOCC3)nc2)c1Cl
EC50 [1]: 0.0794 µM
Efficacy [2]: 88%
CL [4]: 9.5 mL/min/g

Nc1cccnc1-c1ccc(N2CCCCCC2)nc1
EC50 [1]: 1 µM
Efficacy [2]: 91%

Fc1cccc(-c2ccc(N3CCOCC3)nc2)c1F
EC50 [1]: 0.251 µM
Efficacy [2]: 58%

O=C(O)c1cc(-c2cccc(Cl)c2Cl)cnc1N1CCCCCC1
EC50 [1]: 1.58 µM
Efficacy [2]: 41%
EC50 [3]: > 31.6 µM

Clc1cnc(-c2ccc(N3CCCCCC3)nc2)c(Cl)c1
EC50 [1]: 0.316 µM
Efficacy [2]: 100%

Fc1ccc(-c2ccc(N3CCOCC3)nc2)c(F)c1
EC50 [1]: > 31.6 µM

Cc1ccc(N)c(-c2ccc(N3CCCCCC3)nc2)n1
EC50 [1]: 0.126 µM
Efficacy [2]: 86%
